The results in this text go back to patent US20230131903A1, “PESTICIDALLY ACTIVE FUSED BICYCLIC HETEROAROMATIC COMPOUNDS” (SYNGENTA CROP PROTECTION AG, priority 2020, published 2023).

A value given as a limit tells only on which side of the number the result lay.

Common to all, as to type: in vivo
Test [1] relates to Diabrotica Balteata (Corn Root Worm). Nature of the test: Example B1: Diabrotica balteata (corn root worm), maize sprouts sprayed, L2 larvae. Particulars: 96 h, application rate of 200 ppm, 4 days after infestation, in comparison to untreated samples, read-out: control in at least one of the two categories (mortality or growth inhibition). How it is done: Example B1: Diabrotica Balteata (Corn Root Worm)
Maize sprouts placed onto an agar layer in 24-well microtiter plates were treated with aqueous test solutions prepared from 10′000 ppm DMSO stock solutions by spraying. After drying, the plates were infested with L2 larvae (6 to 10 per well). The samples were assessed for mortality and growth inhibition in comparison to untreated samples 4 days after infestation.
(§1) The following compounds gave an effect of at least 80% control in at least one of the two categories (mortality or growth inhibition) at an application rate of 200 ppm

Test [2] relates to Euschistus heros (Neotropical Brown Stink Bug). Nature of the test: Example B2: Euschistus heros (neotropical brown stink bug), soybean leaves sprayed, N2 nymphs. Particulars: 120 h, application rate of 200 ppm, 5 days after infestation, in comparison to untreated samples, read-out: control in at least one of the two categories (mortality or growth inhibition). The protocol: Example B2: Euschistus heros (Neotropical Brown Stink Bug)
Soybean leaves on agar in 24-well microtiter plates were sprayed with aqueous test solutions prepared from 10′000 ppm DMSO stock solutions. After drying the leaves were infested with N2 nymphs. The samples were assessed for mortality and growth inhibition in comparison to untreated samples 5 days after infestation.
as §1

Test [3] has as its system Plutella xylostella (Diamond Back Moth). The experiment in a line: Example B4: Plutella xylostella (diamond back moth), artificial diet, eggs. Particulars: 192 h, application rate of 200 ppm, 8 days after infestation, in comparison to untreated samples, read-out: control in at least one of the two categories (mortality or growth inhibition). How it is done:
Example B4: Plutella xylostella (Diamond Back Moth)
24-well microtiter plates with artificial diet were treated with aqueous test solutions prepared from 10′000 ppm DMSO stock solutions by pipetting. After drying, Plutella eggs were pipetted through a plastic stencil onto a gel blotting paper and the plate was closed with it. The samples were assessed for mortality and growth inhibition in comparison to untreated samples 8 days after infestation.
as §1

Test [4] concerns Chilo suppressalis (Striped Rice Stemborer). Nature of the test: Example B3: Chilo suppressalis (striped rice stemborer), artificial diet, L2 larvae. Particulars: 144 h, application rate of 200 ppm, 6 days after infestation, in comparison to untreated samples, read-out: control in at least one of the three categories (mortality, anti-feedant effect, or growth inhibition). How it is done: Example B3: Chilo suppressalis (Striped Rice Stemborer)
24-well microtiter plates with artificial diet were treated with aqueous test solutions prepared from 10′000 ppm DMSO stock solutions by pipetting. After drying, the plates were infested with L2 larvae (6-8 per well). The samples were assessed for mortality, anti-feeding effect, and growth inhibition in comparison to untreated samples 6 days after infestation. Control of Chilo suppressalis by a test sample is given when at least one of the categories mortality, anti-feedant effect, and growth inhibition is higher than the untreated sample.

Test [5] deals with Spodoptera littoralis (Egyptian Cotton Leaf Worm). The experiment in a line: Example B5: Spodoptera littoralis (Egyptian cotton leaf worm), cotton leaf discs sprayed, L1 larvae. The note with it: foliar, 72 h, application rate of 200 ppm, 3 days after infestation, in comparison to untreated samples, read-out: control in at least one of the three categories (mortality, anti-feedant effect, or growth inhibition). The protocol:
Example B5: Spodoptera littoralis (Egyptian Cotton Leaf Worm)
Cotton leaf discs were placed onto agar in 24-well microtiter plates and sprayed with aqueous test solutions prepared from 10′000 ppm DMSO stock solutions. After drying the leaf discs were infested with five L1 larvae. The samples were assessed for mortality, anti-feeding effect, and growth inhibition in comparison to untreated samples 3 days after infestation. Control of Spodoptera littoralis by a test sample is given when at least one of the categories mortality, anti-feedant effect, and growth inhibition is higher than the untreated sample.

Take `CC(c1ncnn1-c1ncccn1)N(CC1CC1)c1nc(=O)[nH]c2c(Cl)cc(C(F)(F)F)cc12` (stereo not shown) [P1, 8-chloro-4-[cyclopropylmethyl-[1-(2-pyrimidin-2-yl-1,2,4-triazol-3-yl)ethyl]amino]-6-(trifluoromethyl)-1H-quinazolin-2-one]: the percent control (mortality or growth inhibition) at 200 ppm in test [1], in test [2] and in test [3] was not below 80% each time.

In the case of `CC(Nc1nc(=O)[nH]c2c(Br)cc(C(F)(F)F)cc12)c1ncnn1-c1ncccn1` (stereo not shown) [P2], the percent control (mortality or growth inhibition) at 200 ppm in test [1], in test [2] and in test [3] was not below 80% each time. Besides, the percent control (mortality, anti-feedant effect or growth inhibition) at 200 ppm in test [4] was not below 80%.

Regarding `CC(c1ncnn1-c1ncccn1)N(CC1CC1)c1nc(=O)[nH]c2c(Br)cc(C(F)(F)F)cc12` (stereo not shown) [P3, 8-bromo-4-[cyclopropylmethyl-[1-(2-pyrimidin-2-yl-1,2,4-triazol-3-yl)ethyl]amino]-6-(trifluoromethyl)-1H-quinazolin-2-one], the percent control (mortality or growth inhibition) at 200 ppm in test [1], in test [2] and in test [3] was not below 80% in each case.

In the case of `CC(Nc1nc(=O)[nH]c2c(Cl)cc(C(F)(F)F)cc12)c1ncnn1-c1ncccn1` (stereo not shown) [P4, 8-chloro-4-[1-(2-pyrimidin-2-yl-1,2,4-triazol-3-yl)ethylamino]-6-(trifluoromethyl)-1H-quinazolin-2-one], the percent control (mortality or growth inhibition) at 200 ppm in test [2] and in test [3] was not below 80% each time. In addition, the percent control (mortality, anti-feedant effect or growth inhibition) at 200 ppm in test [4] and in test [5] was not below 80% each time.

For `CC(Nc1nc(=O)n(C)c2c(C(F)(F)F)cc(Br)cc12)c1ncnn1-c1ncccn1` (stereo not shown) [P5, 6-bromo-1-methyl-4-[1-(2-pyrimidin-2-yl-1,2,4-triazol-3-yl)ethylamino]-8-(trifluoromethyl)quinazolin-2-one], the percent control (mortality or growth inhibition) at 200 ppm in test [1], in test [2] and in test [3] was not below 80% in each case. Also, the percent control (mortality, anti-feedant effect or growth inhibition) at 200 ppm in test [4] and in test [5] was not below 80% each time.

For the molecule `CC(c1ncnn1-c1ncccn1)N(C)c1nc(=O)n(C)c2c(C(F)(F)F)cc(Br)cc12` (stereo not shown) [P6, 6-bromo-1-methyl-4-[methyl-[1-(2-pyrimidin-2-yl-1,2,4-triazol-3-yl)ethyl]amino]-8-E (trifluoromethyl)quinazolin-2-one], the percent control (mortality or growth inhibition) at 200 ppm in test [1] and in test [2] was not below 80% throughout.

`CC(Nc1nc(=O)n(C)c2c(Cl)cc(C(F)(F)F)cc12)c1ncnn1-c1ncccn1` (stereo not shown) [P7, 8-chloro-1-methyl-4-[1-(2-pyrimidin-2-yl-1,2,4-triazol-3-yl)ethylamino]-6-(trifluoromethyl) quinazolin-2-one]: the percent control (mortality or growth inhibition) at 200 ppm in test [2] and in test [3] was not below 80% throughout. The percent control (mortality, anti-feedant effect or growth inhibition) at 200 ppm in test [4] was not below 80%.

Take `CC(Nc1cc(=O)[nH]c2c(Cl)cc(C(F)(F)F)cc12)c1nccnc1-c1ncccn1` (stereo not shown) [P8, 8-chloro-4-[1-(3-pyrimidin-2-ylpyrazin-2-yl)ethylamino]-6-(trifluoromethyl)-1H-quinolin-2-one]: the percent control (mortality or growth inhibition) at 200 ppm in test [1] and in test [3] was not below 80% in each case.

For `CC(c1ncnn1-c1ncccn1)N(C)c1nc(=O)n(C)c2c(Cl)cc(C(F)(F)F)cc12` (stereo not shown) [P10, 8-chloro-1-methyl-4-[methyl-[1-(2-pyrimidin-2-yl-1,2,4-triazol-3-yl)ethyl]amino]-6-(trifluoromethyl) quinazolin-2-one], the percent control (mortality or growth inhibition) at 200 ppm in test [2] is not below 80%.

Regarding `CC(c1ncnn1-c1ncccn1)N(C)c1nc(=O)n(CC(F)(F)F)c2ccc(C(F)(F)F)cc12` (stereo not shown) [P12, 4-[methyl-[1-(2-pyrimidin-2-yl-1,2,4-triazol-3-yl)ethyl]amino]-1-(2,2,2-trifluoroethyl)-6-(trifluoromethyl) quinazolin-2-one], the percent control (mortality or growth inhibition) at 200 ppm in test [2] was not below 80%.
